In patent US10159670B2, “Methods of diagnosing and treating motor neuron diseases and other cellular stress-related diseases” (priority 2012, dated 2018):

Columns and labels:
NSC-34 cells = assay: Stress-induced change of pre-miRNA processing in NSC-34 cells (qPCR); format: cell-based; details: 1 hr, 0.5 mM
Method: (FIG. 7A) miRNA expression level analysis in the motor neuron cell line NSC-34, treated with 6.25 nM Thapsigargin for 24 hrs, relative to cells treated with carrier alone (DMSO). Shown are average and s.d. of qPCR analyses of 3 independent experiments. Pre-miRNAs (light grey, normalized to Gapdh) and miRNAs (dark grey, normalized to Snord68). (FIG. 7B) mRNA levels encoding for proteins involved in the canonical stress response, normalized to the expression of beta-actin. (FIG. 7C) miRNA expression level analysis in mouse embryonic motor neurons, treated with 5 nM Thapsigargin for 72 hrs, relative to cells treated with carrier alone (DMSO). Shown are average and s.d. of qPCR analyses of three independent experiments. Pre-miRNAs (light grey, normalized to Gapdh and beta actin) and miRNAs (dark grey, normalized to Snord70). (FIG. 7D) mRNA markers of the canonical stress response, normalized to the expression of beta-actin. miRNA expression level analysis in NSC-34 cells, treated with Paraquat (PQ) (1 mM, 12 hrs, FIG. 7E) and sodium arsenite (0.5 mM, 60 min, FIG. 7F). pre-miRNA normalized to beta-actin mRNA (FIGS. 7E-F) and miRNAs to 5S (FIG. 7E) or to U6 and 5S (FIG. 7F). (FIGS. 7G-I) miRNA expression level analysis in mouse embryonic Wild-type fibroblasts (light grey) or phospho-mutant eIF2a S51A cells (black) treated with Thapsigargin (5 nM, 72 hrs) relative to carrier alone. Pre-miRNA (FIG. 7G) and mature miRNA (FIG. 7H) levels normalized to Gapdh and Snord68, respectively. (FIG. 7I) ATF4, which is induced by phosphorylation of eIF2a, was not induced in phospho-mutant eIF2a S51A cells. Significance of p-values from ANOVA tests is indicated by *p<0.05; **p<0.01. (FIGS. 7J-K) Western-Blot analysis of lysates from untreated NSC-34 cells (control) or cells treated with sodium arsenite (0.5 mM, 60 min). Phospho-specific immunodetection of eIF2a S51 phosphorylation (peIF2a) and total eIF2a levels (FIG. 7J), Dicer and Ago2 levels (FIG. 7K). (FIG. 7L) miRNA expression level analysis in mouse embryonic fibroblasts treated with Puromycin (1 μg/ml, 24 hrs), relative to cells treated with carrier alone (water). Pre-miRNAs (light grey, normalized to Gapdh) and miRNAs (dark grey, normalized to Snord68).
RNA was extracted using Tri reagent (Molecular Research Center Inc.) or Qiazol with consecutive use of the miRNeasy Mini Kit (Qiagen). Pre-miRNA and miRNA reverse transcription was performed using miScript Kits No. I & II (Qiagen). Quantitative analysis of miRNA and pre-miRNA expression performed in more than 3 independent biological repeats and additionally in technical duplicates with StepOnePlus quantitative Real-Time PCR System and 2-sided ANOVA-test performed with DataAssist Software (Life technologies Inc.). Next-generation sequencing of mouse precursor miRNAs and mature miRNAs was performed on two independent experimental repeats, as described in Newman et al. [Newman et al. (2011) RNA 17(10): 1795-1803]. miRNAs were normalized to spiked-in controls and pre-miRNAs were normalized to Snord72 and Snord95.
Stress and cytoplasmic stress granules (SGs) emerge as major pathogenic mechanisms of ALS [Kim et al. (2014) Nat Genet 46(2): 152-160]. Stress pathways are thought to control miRNA activity [Etude and Hornstein, EMBO J. (2014) July 1; 33(13):1428-37], but the idea that cellular stress might broadly regulate miRNA biogenesis was not yet tested. This hypothesis was tested herein by measurement of the relative expression levels of mature miRNAs and their precursors, pre-miRNAs, which provides a proxy for the efficacy of Dicer complex activity. […] Two other chemicals were tested that drive oxidative stress, namely Paraquat (PQ, 12 hrs, 1 mM) and sodium arsenite (1 hr, 0.5 mM). […] Therefore, several different cellular stress pathways negatively regulate miRNA biogenesis.

eIF2a = assay: Western blot of eIF2a S51 phosphorylation in NSC-34 cells; format: cell-based; details: 0.5 mM; 1 hr
Method: (FIG. 7A) miRNA expression level analysis in the motor neuron cell line NSC-34, treated with 6.25 nM Thapsigargin for 24 hrs, relative to cells treated with carrier alone (DMSO). Shown are average and s.d. of qPCR analyses of 3 independent experiments. Pre-miRNAs (light grey, normalized to Gapdh) and miRNAs (dark grey, normalized to Snord68). (FIG. 7B) mRNA levels encoding for proteins involved in the canonical stress response, normalized to the expression of beta-actin. (FIG. 7C) miRNA expression level analysis in mouse embryonic motor neurons, treated with 5 nM Thapsigargin for 72 hrs, relative to cells treated with carrier alone (DMSO). Shown are average and s.d. of qPCR analyses of three independent experiments. Pre-miRNAs (light grey, normalized to Gapdh and beta actin) and miRNAs (dark grey, normalized to Snord70). (FIG. 7D) mRNA markers of the canonical stress response, normalized to the expression of beta-actin. miRNA expression level analysis in NSC-34 cells, treated with Paraquat (PQ) (1 mM, 12 hrs, FIG. 7E) and sodium arsenite (0.5 mM, 60 min, FIG. 7F). pre-miRNA normalized to beta-actin mRNA (FIGS. 7E-F) and miRNAs to 5S (FIG. 7E) or to U6 and 5S (FIG. 7F). (FIGS. 7G-I) miRNA expression level analysis in mouse embryonic Wild-type fibroblasts (light grey) or phospho-mutant eIF2a S51A cells (black) treated with Thapsigargin (5 nM, 72 hrs) relative to carrier alone. […]

Structure (SMILES): O=[As]O [sodium arsenite]
- mature miRNAs (NSC-34 cells): down-regulation of mature miRNAs
- pre-miRNA levels (NSC-34 cells): up-regulation of pre-miRNA levels
- phosphorylation of eIF2a (eIF2a): sufficient to induce the phosphorylation of eIF2a
